In one test the test system is Escherichia coli. The test is classed as cell-based. The protocol: (§1) Regarding the antimicrobial peptide in samples 1 to 14 and the comparative sample 1, the antimicrobial activities (minimum inhibitory concentration: MIC) with respect to gram-negative bacteria (Escherichia coli) and gram-positive bacteria (Staphylococcus aureus) were determined, as described below, by a liquid medium dilution technique using a 96-well microplate. First, a drug (synthesized peptide) solution having a concentration of 40 times of the highest test concentration was prepared using sterile distilled water, and thereafter liquid-bouillon mediums (“NUTRIENT BROTH Dehydrated” manufactured by DIFCO) having peptide concentrations of 200, 100, 50, 25, 12.5, 6.25, 3.13, 1.56 and 0.78 μM were produced respectively. The produced liquid-bouillon mediums including the peptide of each concentration were then fed to the 96-well microplate at 100 μL a time.
(§2) At the same time, test bacteria cultured for 18 hours at 37° C. on an agar plate (“Muller Hinton Agar” manufactured by DIFCO) were gathered by scratching with a loop, and then suspended in a sterilized physiological saline. Bacterial suspension 5 μL prepared at an equivalent of 2×10^7 cells/mL was respectively inoculated (number of bacteria to be tested: approximately 1×10^6 cells/mL) onto the above-described liquid-bouillon mediums including the peptide of each concentration and fed to each well of the above-described microplate. After inoculation, the microplate was then incubated in an incubator at 37° C., and the presence of bacteria was evaluated based on the turbidity 24 hours later. The minimum drug concentration (peptide concentration), in which an increased in turbidity caused by bacteria was not detected at the time of measurement, was defined as MIC (minimum inhibitory concentration) (unit: μM) in the present embodiment.

In another test the test system is Staphylococcus aureus. The class given is cell-based. The conditions noted are these: for antimicrobial activities against gram-positive bacteria (S. aureus), in words: summary of Table 2. The protocol: as §1, §2
Where [1] appears, read: liquid-bouillon medium (Nutrient Broth), 37° C., turbidity after 24 hours.

Like-named read-outs stand apart in the source and are kept apart here. Where a SMILES comes first, the peptide text is derived from it.

On to `CC(C)C[C@H](NC(=O)[C@H](CCCNC(=N)N)NC(=O)[C@H](CCC(=O)O)NC(=O)[C@H](CC(C)C)NC(=O)[C@@H]1CCCN1C(=O)[C@@H]1CCCN1C(=O)[C@@H](N)CC(C)C)C(=O)N[C@H](C(=O)N[C@@H](CC(C)C)C(=O)N[C@@H](CC(=O)O)C(N)=O)[C@@H](C)O` [Comparative Sample 1, LPPLERLTLD, reference compound] (H-LPPLERLTLD-NH2), for which, in the test on Escherichia coli (setting [1]), the “Antimicrobial Activities (MIC) E. coli” value was greater than 200 µM. Further, in the test on Escherichia coli (summary of Table 2), the “antimicrobial activities against E. coli, in words” value is recorded as “no antimicrobial activity”. Besides, the “Antimicrobial Activities (MIC) S. aureus” value in the test with Staphylococcus aureus (setting [1]) is greater than 200 µM. Besides, the “antimicrobial activities against gram-positive bacteria (S. aureus), in words” value (“antimicrobial activities … (S. aureus), in words” below) in the test on Staphylococcus aureus is “no antimicrobial activity”.

Turning to `CC(C)[C@H](NC(=O)[C@H](C)NC(=O)[C@@H](NC(=O)[C@H](CCCCN)NC(=O)[C@@H](N)CCCCN)C(C)C)C(=O)N[C@H](C(=O)N[C@@H](CCCNC(=N)N)C(N)=O)C(C)C` [Sample 1, KKVAVVR] (H-KKVAVVR-NH2), the “Antimicrobial Activities (MIC) E. coli” value in the test with Escherichia coli (24 h) came to 200 µM. Further, in the test with Staphylococcus aureus (24 h), the “Antimicrobial Activities (MIC) S. aureus” value turned out to be 50 µM.

On to `CC[C@H](C)[C@H](NC(=O)[C@H](CCC(N)=O)NC(=O)[C@@H](NC(=O)[C@@H](N)CCCCN)C(C)C)C(=O)N[C@H](C(=O)N[C@@H](CC(N)=O)C(=O)N[C@@H](CCCCN)C(=O)N[C@@H](CCCCN)C(N)=O)[C@@H](C)CC` [Sample 2, KVQIINKK] (H-KVQIINKK-NH2; N-terminus assumed), for which the “Antimicrobial Activities (MIC) E. coli” value in the test on Escherichia coli (24 h) is 200 µM. Also, the “Antimicrobial Activities (MIC) S. aureus” value in the test on Staphylococcus aureus (24 h) came to 200 µM.

With `CC[C@H](C)[C@H](NC(=O)[C@H](CCC(N)=O)NC(=O)[C@@H](NC(=O)[C@H](CCCNC(=N)N)NC(=O)[C@H](CCC(N)=O)NC(=O)[C@H](CC(C)C)NC(=O)[C@H](CCCCN)NC(=O)[C@H](CCCNC(=N)N)NC(=O)[C@H](CCCCN)NC(=O)[C@@H](N)CC(C)C)C(C)C)C(=O)N[C@H](C(=O)N[C@@H](Cc1ccc(O)cc1)C(=O)N[C@@H](CCCCN)C(N)=O)C(C)C` [Sample 3, LKRKLQRVQIVYK] (H-LKRKLQRVQIVYK-NH2), the “Antimicrobial Activities (MIC) E. coli” value in the test with Escherichia coli (24 h) is 6.25 µM. In addition, the “Antimicrobial Activities (MIC) S. aureus” value in the test on Staphylococcus aureus (24 h) was 3.13 µM. The “antimicrobial activities … (S. aureus), in words” value with Staphylococcus aureus is on record as “particularly high antimicrobial activities”.

As for `CC[C@H](C)[C@H](NC(=O)[C@H](CCC(N)=O)NC(=O)[C@@H](NC(=O)[C@H](CCCNC(=N)N)NC(=O)[C@H](CCC(N)=O)NC(=O)[C@H](CC(C)C)NC(=O)[C@H](CCCCN)NC(=O)[C@H](CCCNC(=N)N)NC(=O)[C@H](CCCCN)NC(=O)[C@@H](N)CC(C)C)C(C)C)C(=O)N[C@H](C(=O)N[C@@H](CC(N)=O)C(=O)N[C@@H](CCCCN)C(N)=O)[C@@H](C)CC` [Sample 4, LKRKLQRVQIINK] (H-LKRKLQRVQIINK-NH2), the “Antimicrobial Activities (MIC) E. coli” value in the test on Escherichia coli (24 h) came to 100 µM. The “Antimicrobial Activities (MIC) S. aureus” value with Staphylococcus aureus (24 h) was 6.25 µM. Besides, the “antimicrobial activities … (S. aureus), in words” value with Staphylococcus aureus is given as “particularly high antimicrobial activities”.

With `CC(C)[C@H](NC(=O)[C@H](C)NC(=O)[C@@H](NC(=O)[C@H](CCCCN)NC(=O)[C@H](CCCCN)NC(=O)[C@H](CCCNC(=N)N)NC(=O)[C@@H](NC(=O)[C@@H](NC(=O)[C@H](C)NC(=O)[C@@H](NC(=O)[C@H](CCCCN)NC(=O)[C@@H](N)CCCCN)C(C)C)C(C)C)C(C)C)C(C)C)C(=O)N[C@H](C(=O)N[C@@H](CCCNC(=N)N)C(N)=O)C(C)C` [Sample 5, KKVAVVRKKVAVVR] (H-KKVAVVRKKVAVVR-NH2), in the test on Escherichia coli (24 h), the “Antimicrobial Activities (MIC) E. coli” value is 100 µM. Also, the “Antimicrobial Activities (MIC) S. aureus” value in the test on Staphylococcus aureus (24 h) came out at 12.5 µM. In addition, the “antimicrobial activities … (S. aureus), in words” value with Staphylococcus aureus is given as “particularly high antimicrobial activities”.

Values taken from patent US7964556B1, “Antimicrobial peptides and use thereof” (Toagosei Co., Ltd, priority 2004, dated 2011).
